Laboratory results published in patent US20080090834A1, “SELECTIVE AZOLE PDE10A INHIBITOR COMPOUNDS” (Pfizer Inc, priority 2006, published 2008).
Counter-ions that a name gives are not always drawn.

Molecular target: T1, cloned rat PDE10A full-length enzyme (Rattus norvegicus, UniProt Q9QYJ6)
T1 construct: cloned rat PDE10A full-length enzyme grown in transfected Sf9 insect cells; made in house; host or cells: Sf9 insect cells
T1 sequence (Q9QYJ6 1-794): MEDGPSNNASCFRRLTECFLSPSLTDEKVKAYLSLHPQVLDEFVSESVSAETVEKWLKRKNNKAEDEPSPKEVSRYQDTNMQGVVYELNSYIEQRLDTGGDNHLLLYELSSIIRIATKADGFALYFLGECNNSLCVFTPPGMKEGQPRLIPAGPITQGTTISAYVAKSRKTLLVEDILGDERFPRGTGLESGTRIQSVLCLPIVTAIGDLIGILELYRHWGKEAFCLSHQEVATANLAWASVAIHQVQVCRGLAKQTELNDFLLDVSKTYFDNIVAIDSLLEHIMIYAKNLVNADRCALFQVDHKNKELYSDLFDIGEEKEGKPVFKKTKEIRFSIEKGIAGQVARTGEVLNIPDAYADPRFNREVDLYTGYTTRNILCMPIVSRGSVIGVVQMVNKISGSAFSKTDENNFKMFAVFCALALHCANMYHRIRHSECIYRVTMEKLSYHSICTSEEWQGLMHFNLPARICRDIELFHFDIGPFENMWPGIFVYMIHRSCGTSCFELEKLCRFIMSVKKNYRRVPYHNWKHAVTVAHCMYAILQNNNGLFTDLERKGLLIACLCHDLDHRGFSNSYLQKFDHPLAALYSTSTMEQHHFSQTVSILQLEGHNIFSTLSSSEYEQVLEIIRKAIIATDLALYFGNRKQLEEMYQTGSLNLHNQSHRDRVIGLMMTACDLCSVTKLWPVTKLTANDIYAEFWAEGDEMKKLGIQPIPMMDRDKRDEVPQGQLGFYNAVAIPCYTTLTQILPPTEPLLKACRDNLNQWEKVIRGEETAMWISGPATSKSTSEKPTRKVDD
Experiment: PDE10 enzyme inhibition, [3H]cAMP scintillation proximity assay
Assay type: biochemical
Details: rat PDE10A from Sf9 cells, 20 nM [3H]cAMP, SPA beads, 20 minute incubation at room temperature
Experimental: Compounds of the present invention were evaluated for ability to inhibit PDE10 enzyme with the following Assay procedure
The enzyme used in the procedure was cloned rat PDE10A full-length enzyme grown in transfected Sf9 insect cells. Cloned enzyme was extracted from homogenized cell pellets and stored frozen in homogenizing buffer until use. Compounds were initially dissolved in 100% DMSO and diluted out in 20 percent DMSO/water solution. Final concentration of DMSO in the assay was 2 percent as compounds were tested in triplicate in 96 well plates. Compound solution was placed in well, then tritiated cyclic AMP (New England Nuclear NET275) in assay buffer was added at 20 nM concentration. Then PDE10 enzyme in assay buffer of 50 mM Tris, 8.3 mM MgCl2, pH 7.5 at room temperature was added for a final assay volume of 100 ul. Concentration of enzyme was added such that less than 10 percent of [3H]cAMP at 20 nM was converted to detectable end product, [3H]AMP bound to SPA (Scintillation Proximity Assay) beads. Phosphodiesterase scintillation proximity yttrium silicate beads from Amersham Biosciences (RPNQ0150) were added (50 ul at 20 mg/ml) after a 20 minute incubation at room temperature. Zinc sulphate as a component of the beads stops the phosphodiesterase reaction.
Non-specific binding to SPA beads was determined by addition of 1 uM papaverine. Total conversion by enzyme without inhibitor of [3H]cAMP to [3H]AMP, as detected by scintillation of [3H]AMP bound to yttrium silicate beads, was determined in the presence of vehicle-only.

COc1nc2cccnc2n1-c1ccc(-c2nc(-c3nc(C)cs3)cn2-c2ccc(C)nc2)cc1 [Example 90, 2-methoxy-3-(4-(1-(6-methylpyridin-3-yl)-4-(4-methylthiazol-2-yl)-1H-imidazol-2-yl)phenyl)-3H-imidazol[4,5-b]pyridine]
IC50: 0.287 nM

Cc1ccc(-n2cc(-c3ccccn3)nc2-c2ccc(-n3cnc4ncccc43)cc2)cn1 (single isomer, unassigned) [Example 48]
IC50: 63.7 nM

CN(C)Cc1cn(-c2ccc(-c3nc(-c4ccccn4)cn3-c3cccnc3)cc2)c2ncccc12 [Example 18, N,N-dimethyl(1-(4-(4-(pyridin-2-yl)-1-(pyridin-3-yl)-1H-imidazol-2-yl)phenyl)-1H-pyrrolo[2,3-b]pyridin-3-yl)methanamine TFA salt]
IC50: 24.3 nM

Cc1ccc(-n2cc(-c3ccccn3)nc2-c2ccc(-n3c(C(F)(F)F)nc4cccnc43)cc2)cn1 [Example 58, 2(trifluoromethyl)-3(4-(1-(6-methylpyridin-3-yl)-4-(pyridin-2-yl)-1H-imidazol-2-yl)phenyl)-3H-imidazo[4,5-b]pyridine]
IC50: 1.06 nM

FC(F)(F)c1ccc(-n2cc(-c3nccs3)nc2-c2ccc(-n3ccc4cccnc43)cc2)cn1 [Example 32, 1-(4-(1-(6-(trifluoromethyl)pyridin-3-yl)-4-(thiazol-2-yl)-1H-imidazol-2-yl)phenyl)-1H-pyrrolo[2,3-b]pyridine]
IC50: 2.13 nM

Clc1ccc(-c2ccc(-c3nc(-c4ccccn4)cn3-c3cncnc3)cc2)cc1 [Example 71, 5-(2-(4-(4-chlorophenyl)phenyl)-4-(pyridin-2-yl)-1H-imidazol-1-yl)pyrimidine]
IC50: 67.6 nM

COc1ccc(-c2[nH]c(-c3cccs3)nc2-c2ccc(-n3ccnc3)cc2)cc1 [Example 106, 1-(4-(5-(4-methoxyphenyl)-2-(thiophen-2-yl)-1H-imidazol-4-yl)phenyl)-1H-imidazole]
IC50: 11 nM

CCCOc1nc2cccnc2n1-c1ccc(-c2nc(-c3ccccn3)cn2-c2ccc(C)nc2)cc1 [Example 91, 3-(4-(1-(6-methylpyridin-3-yl)-4-(pyridin-2-yl)-1H-imidazol-2-yl)phenyl)-2-propoxy-3H-imidazo[4,5-b]pyridine]
IC50: 0.741 nM

Cc1ccc(-n2cc(-c3nccs3)nc2-c2ccc(-n3c(=O)[nH]c4cccnc43)cc2)cn1 [Example 118, 3-(4-(1-(6-methylpyridin-3-yl)-4-(thiazol-2-yl)-1H-imidazol-2-yl)phenyl)-1H-imidazo[4,5-b]pyridin-2(3H)-one]
IC50: 0.748 nM

COc1ccnc2c(-c3ccc(-c4nc(-c5ccccn5)cn4-c4cccnc4)cc3)cc(C)cc12 [Example 77]
IC50: 156 nM

c1cncc(-n2cc(-c3nc4ccccc4s3)nc2-c2ccc(-n3ccc4cccnc43)cc2)c1 [Example 76, 1-(4-(4-benzo[d]thiazol-2-yl)-1-(pyridin-3-yl)-1H-b]pyridine]
IC50: 544 nM

CCOc1nc2cccnc2n1-c1ccc(-c2nc(-c3cscn3)cn2-c2ccc(C)nc2)cc1 [Example 100, 2-ethoxy-3-(4-(1-(6-methylpyridin-3-yl)-4-(thiazol-4-yl)-1H-imidazol-2-yl)phenyl)-3H-imidazo[4,5-b]pyridine]
IC50: 1.31 nM

CNCc1ccc(-n2cc(-c3nccs3)nc2-c2ccc(-n3ccc4cccnc43)cc2)cc1 [Example 33, (4-(2-(4-(1H-pyrrolo[2,3-b]pyridin-1-yl)phenyl)-4-(thiazol-2-yl)-1H-imidazol-1-yl)phenyl-N-methylmethanamine Hydrochloride]
IC50: 14.1 nM

COc1nc2cccnc2n1-c1ccc(-c2nc(-c3ccccn3)cn2-c2ccc(C)nc2)cc1 [Example 60, 2-methoxy-3-(4-(1-(6-methylpyridin-3-yl)-4-(pyridin-2-yl)-1H-imidazol-2-yl)phenyl)-3H-imidazo[4,5-b]pyridine]
IC50: 0.388 nM

COc1ccc(-n2cc(-c3nccs3)nc2-c2ccc(-n3ccc4cccnc43)cc2)cc1 [Example 2, 1-(4-(1-(4-methoxyphenyl)-4-(thiazol-2-yl)-1H-imidazol-2-yl)phenyl)-1H-pyrrolo[2,3-b]pyridine]
IC50: 156 nM

Clc1ccc(-c2cn(-c3cncnc3)c(-c3ccc(-n4ccc5cccnc54)cc3)n2)s1 [Example 62, 1-(4-(4-(5-chlorothiophen-2-yl)-1-(pyrimidin-5-yl)-1H-imidazol-2-yl)phenyl)-1H-pyrrolo[2,3-b]pyridine]
IC50: 65.1 nM

Cc1ccc(-n2cc(-c3ccccn3)nc2-c2ccc(-n3ccc4cccnc43)c(C)c2)cn1 [Example 12, 1-(2-methyl-4-(1-(6-methylpyridin-3-yl)-4-(pyridin-2-yl)-1H-imidazol-2-yl)phenyl)-1H-pyrrolo[2,3-b]pyridine]
IC50: 31.7 nM

Cc1ccc(-n2cc(-c3ccccn3)nc2-c2ccc(-n3cc(C)c4nccnc43)cc2)cn1 [Example 75]
IC50: 2.41 nM

Cc1ccc(-n2cc(-c3ccccn3)nc2-c2ccc(-n3ccc4cc(Cl)cnc43)cc2)cn1 [Example 20, 5-chloro-1-(4-(4-pyridin-2-yl)-1-(6-methylpyridin-3-yl-1H-imidazol-2-yl)phenyl)-1H-pyrrolo[2,3-b]pyridine]
IC50: < 2.72 nM

Cc1ccc(-n2cc(-c3ccccn3)nc2-c2ccc(-n3ccc4cccnc43)cc2C)cn1 [Example 13, 1-(3-methyl-4-(1-(6-methylpyridin-3-yl)-4-(pyridin-2-yl)-1H-imidazol-2-yl)phenyl)-1H-pyrrolo[2,3-b]pyridin]
IC50: 37.1 nM

Cc1nc(-c2cn(-c3cncnc3)c(-c3ccc(-n4ccc5cccnc54)cc3)n2)sc1C [Example 85]
IC50: 74.2 nM

CN(C)CCc1cn(-c2ccc(-c3nc(-c4ccccn4)cn3-c3cccnc3)cc2)c2ncccc12 [Example 10, N,N-dimethyl-2-(1-(4-(4-(pyridin-2-yl)-1-(pyridin-3-yl)-1H-imidazol-2-yl)phenyl)-1H-pyrrolo[2,3-b]pyridin-3-yl)ethanamine]
IC50: 8.99 nM

CCOc1nc2cccnc2n1-c1ccc(-c2nc(-c3ccccn3)cn2-c2ccc(C)nc2)cc1 [Example 94, 2-ethoxy-3-(4-(1-(6-methylpyridin-3-yl)-4-(pyridin-2-yl)-1H-imidazol-2-yl)phenyl)-3H-imidazol[4,5-b]pyridine]
IC50: 1.02 nM

Cc1cc(-n2cc(-c3nccn3C)nc2-c2ccc(-n3ccc4cccnc43)cc2)ccn1 [Example 66, 1-(4-(4-(1-methyl-1H-imidazol-2-yl)-1-(2-methylpyridin-4-yl)-1H-imidazol-2-yl)phenyl)-1H-pyrrolo[2,3-b]pyridine]
IC50: 112 nM

c1ccc(-c2cc(-c3cccnc3)n(-c3ccc(-n4ccc5cccnc54)cc3)n2)nc1 [Example 121, 1-(4-(3-(pyridin-2-yl)-5-(pyridin-3-yl)-1H-pyrazol-1-yl)phenyl)-1H-pyrrolo)-2,3-b]pyridine bis-TFA salt]
IC50: 9.29 nM

Cc1ccc(-n2cc(-c3ccccn3)nc2-c2ccc(-n3ncc4ccncc43)cc2)cn1 [Example 56, 1-(4-(1-(6-methylpyridin-3-yl)-4-(pyridin-2-yl)-1H-imidazol-2-yl)phenyl)-1H-pyrazolo[3,4-]pyridine]
IC50: 6.44 nM

c1ccc(-c2cn(-c3cncnc3)c(-c3ccc(-c4ccncc4)cc3)n2)nc1 [Example 73]
IC50: 74.3 nM

c1cnc2c(c1)ccn2-c1ccc(-c2nc(-c3nccs3)cn2-c2ccc(N3CCOCC3)nc2)cc1 [Example 34, 1-(4-(1-(6-morpholinopyridin-3-yl)-4-(thiazol-2-yl)-1H-imidazol-2-yl)phenyl)-1H-pyrrolo[2,3-b]pyridine]
IC50: 0.436 nM

Cc1ccc(-n2cc(-c3ccccn3)nc2-c2ccc(-n3ccc4cccnc43)cc2)cn1 [Example 6, 1-(4-(1-(6-methylpyridine-3-yl)-4-(pyridin-2-yl)-1H-imidazol-2-yl)phenyl)-1H-pyrrolo[2,3-b]pyridine]
IC50: 3.21 nM

COc1ccc(-n2cc(-c3ccccn3)nc2-c2ccc(-n3ccc4cccnc43)cc2)cn1 [Example 9, 1-(4-(1-(6-methoxypyridin-3-yl)-4-(pyridin-2-yl)-1H-imidazol-2-yl)phenyl)-1H-pyrrolo[2,3-b]pyridine]
IC50: 3.07 nM
